35 molecules from patent US10344032B2, “Agents for treating neurogenic inflammation and neuropathic hyperalgesia related disorders” (PÉCSI TUDOMÁNYEGYETEM, priority 2014, dated 2019) can be followed below.

SMILES strings stand for the structures.

`Nc1ccc(CCNc2ncnc3c2ccn3Cc2cncc(Br)c2)cc1` [Example 11, [2-(4-Amino-phenyl)-ethyl]-[7-(5-bromo-pyridin-3-ylmethyl)-7H-pyrrolo[2,3-d]pyrimidin-4-yl]-amine]: the melting point was in the range of 158.8 to 160.9 °C. With `COc1ccc(CCNc2ncnc3c2ccn3Cc2ccccc2)cc1` [Example 13, (7-Benzyl-7H-pyrrolo[2,3-d]pyrimidin-4-yl)-[2-(4-methoxy-phenyl)-ethyl]-amine] the figure was 140 to 141 °C; with `Cc1c(C)n(Cc2cccc(Cl)c2)c2ncnc(NCCc3cccc(F)c3)c12` [Example 19, [7-(3-Chloro-benzyl)-5,6-dimethyl-7H-pyrrolo[2,3-d]pyrimidin-4-yl]-[2-(3-fluoro-phenyl)-ethyl]-amine], 232 to 235 °C; with `COc1ccc(CCNc2ncnc3c2c(C)c(C)n3Cc2cccc(Cl)c2)cc1OC` [Example 20, [7-(3-Chloro-benzyl)-5,6-dimethyl-7H-pyrrolo[2,3-d]pyrimidin-4-yl]-[2-(3,4-dimethoxy-phenyl)-ethyl]-amine], 118 to 120 °C.

`Cc1c(C)n(Cc2cccc(Cl)c2)c2ncnc(NCCc3ccccc3Cl)c12` [Example 21, [7-(3-Chloro-benzyl)-5,6-dimethyl-7H-pyrrolo[2,3-d]pyrimidin-4-yl]-[2-(2-chloro-phenyl)-ethyl]-amine] yielded a melting point of 190 to 192 °C. As for `COc1ccc(CCN(C)c2ncnc3c2c(C)c(C)n3Cc2cccc(Cl)c2)cc1OC` [Example 22, [7-(3-Chloro-benzyl)-5,6-dimethyl-7H-pyrrolo[2,3-d]pyrimidin-4-yl]-[2-(3,4-dimethoxy-phenyl)-ethyl]-methyl-amine], the figure is 178 to 180 °C; as for `COc1ccc(CCNc2ncnc3c2c(C)c(C)n3Cc2cccc(Cl)c2)cc1` [Example 23, [7-(3-Chloro-benzyl)-5,6-dimethyl-7H-pyrrolo[2,3-d]pyrimidin-4-yl]-[2-(4-methoxy-phenyl)-ethyl]-amine], 214 to 216 °C.

Turning to `COc1ccc(CCNc2ncnc3c2ccn3Cc2ccccc2)cc1OC` [Example 24, (7-Benzyl-7H-pyrrolo[2,3-d]pyrimidin-4-yl)-[2-(3,4-dimethoxy-phenyl)-ethyl]-amine], the melting point is 177.3 to 178.3 °C. As to `Clc1ccccc1CCNc1ncnc2c1ccn2Cc1ccccc1` [Example 25, (7-Benzyl-7H-pyrrolo[2,3-d]pyrimidin-4-yl)-[2-(2-chloro-phenyl)-ethyl]-amine], the melting point lay within 180 to 182.3 °C. On to `c1ccc(CCNc2ncnc3c2ccn3Cc2ccccc2)cc1` [Example 26, (7-Benzyl-7H-pyrrolo[2,3-d]pyrimidin-4-yl)-phenethyl-amine], for which the melting point fell in the range of 210 to 211.8 °C. The molecule `Fc1cccc(CCNc2ncnc3c2ccn3Cc2ccccc2)c1` [Example 27, (7-Benzyl-7H-pyrrolo[2,3-d]pyrimidin-4-yl)-[2-(3-fluoro-phenyl)-ethyl]-amine] had a melting point of 116 to 117.5 °C. With `OC(CNc1ncnc2c1ccn2Cc1ccccc1)c1ccccc1` (centres unmarked) [Example 29, 2-(7-Benzyl-7H-pyrrolo[2,3-d]pyrimidin-4-ylamino)-1-phenyl-ethanol] the figure was 195 to 197 °C; with `Cc1c(C)n(Cc2ccco2)c2ncnc(NCCc3ccccc3Cl)c12` [Example 31, [2-(2-Chloro-phenyl)-ethyl]-(7-furan-2-ylmethyl-5,6-dimethyl-7H-pyrrolo[2,3-d]pyrimidin-4-yl)-amine], 128.9 to 129.2 °C. `Cc1c(C)n(Cc2ccco2)c2ncnc(NCCc3ccccc3)c12` [Example 32, (7-Furan-2-ylmethyl-5,6-dimethyl-7H-pyrrolo[2,3-d]pyrimidin-4-yl)-phenethyl-amine] showed a melting point of 221 to 223 °C. As for `Cc1c(C)n(Cc2ccco2)c2ncnc(NCCc3cccc(F)c3)c12` [Example 33, [2-(3-Fluoro-phenyl)-ethyl]-(7-furan-2-ylmethyl-5,6-dimethyl-7H-pyrrolo[2,3-d]pyrimidin-4-yl)-amine], the figure is 89 to 90 °C. As for `Cc1c(C)n(Cc2ccco2)c2ncnc(NCC(O)c3ccccc3)c12` (centres unmarked) [Example 35, 2-(7-Furan-2-ylmethyl-5,6-dimethyl-7H-pyrrolo[2,3-d]pyrimidin-4-ylamino)-1-phenyl-ethanol], the figure is 167.5 to 168 °C; as for `Clc1ccccc1CCNc1ncnc2c1ccn2Cc1cncc(Br)c1` [Example 36, [7-(5-Bromo-pyridin-3-ylmethyl)-7H-pyrrolo[2,3-d]pyrimidin-4-yl]-[2-(2-chloro-phenyl)-ethyl]-amine], 114 to 115 °C. Molecule `COc1ccc(CCNc2ncnc3c2ccn3Cc2cncc(Br)c2)cc1` [Example 38, [7-(5-Bromo-pyridin-3-ylmethyl)-7H-pyrrolo[2,3-d]pyrimidin-4-yl]-[2-(4-methoxy-phenyl)-ethyl]-amine] came in with a melting point of 100.4 to 100.7 °C. Take `Cc1c(C)n(Cc2ccccc2)c2ncnc(NCCc3ccccc3Cl)c12` [Example 42, (7-Benzyl-5,6-dimethyl-7H-pyrrolo[2,3-d]pyrimidin-4-yl)-[2-(2-chloro-phenyl)-ethyl]-amine]: the melting point lay within 223 to 227 °C. With `Cc1c(C)n(Cc2ccccc2)c2ncnc(NCCc3cccc(F)c3)c12` [Example 43, (7-Benzyl-5,6-dimethyl-7H-pyrrolo[2,3-d]pyrimidin-4-yl)-[2-(3-fluoro-phenyl)-ethyl]-amine] the figure was 237.6 to 240 °C; with `Cc1c(C)n(Cc2cccc(Cl)c2)c2ncnc(NCCc3ccc(NC(=O)c4ccccc4)cc3)c12` [Example 44, N-(4-{2-[7-(3-Chloro-benzyl)-5,6-dimethyl-7H-pyrrolo[2,3-d]pyrimidin-4-ylamino]-ethyl}-phenyl)-benzamide], 151 to 152.3 °C; with `CC(=O)Nc1ccc(CCNc2ncnc3c2c(C)c(C)n3Cc2cccc(Cl)c2)cc1` [Example 45, N-(4-{2-[7-(3-Chloro-benzyl)-5,6-dimethyl-7H-pyrrolo[2,3-d]pyrimidin-4-ylamino]-ethyl}-phenyl)-acetamide], 186.1 to 187.2 °C. With `CC(=O)Nc1ccc(CCNc2ncnc3c2c(C)c(C)n3Cc2ccco2)cc1` [Example 46, N-{4-[2-(7-Furan-2-ylmethyl-5,6-dimethyl-7H-pyrrolo[2,3-d]pyrimidin-4-ylamino)-ethyl]-phenyl}-acetamide] the figure was 206.8 to 208.1 °C; with `CC(=O)Nc1ccc(CCNc2ncnc3c2ccn3Cc2ccccc2)cc1` [Example 47, N-{4-[2-(7-Benzyl-7H-pyrrolo[2,3-d]pyrimidin-4-ylamino)-ethyl]-phenyl}-acetamide], 228 to 229.5 °C; with `Cc1c(C)n(Cc2ccccc2)c2ncnc(NCCc3ccc(NC(=O)c4cccc(C(F)(F)F)c4)cc3)c12` [Example 48, N-{4-[2-(7-Benzyl-5,6-dimethyl-7H-pyrrolo[2,3-d]pyrimidin-4-ylamino)-ethyl]-phenyl}-3-trifluoromethyl-benzamide], 110 to 113 °C. With `Cc1c(C)n(Cc2ccccc2)c2ncnc(NCCc3ccc(NC(=O)c4ccc(Cl)cc4)cc3)c12` [Example 49, N-{4-[2-(7-Benzyl-5,6-dimethyl-7H-pyrrolo[2,3-d]pyrimidin-4-ylamino)-ethyl]-phenyl}-4-chloro-benzamide] the figure was greater than 270 °C. As to `Cc1c(C)n(Cc2ccccc2)c2ncnc(NCCc3ccc(NC(=O)c4ccccc4)cc3)c12` [Example 50, N-{4-[2-(7-Benzyl-5,6-dimethyl-7H-pyrrolo[2,3-d]pyrimidin-4-ylamino)-ethyl]-phenyl}-benzamide], the melting point is 180 to 182 °C. As for `CCN(CC)C(=O)Nc1ccc(CCNc2ncnc3c2c(C)c(C)n3Cc2cccc(Cl)c2)cc1` [Example 52, 3-(4-{2-[7-(3-Chloro-benzyl)-5,6-dimethyl-7H-pyrrolo[2,3-d]pyrimidin-4-ylamino]-ethyl}-phenyl)-1,1-diethyl-urea], the melting point fell in the range of 112.9 to 113.3 °C.

For `CCN(CC)C(=O)Nc1ccc(CCNc2ncnc3c2c(C)c(C)n3Cc2ccccc2)cc1` [Example 53, 3-{4-[2-(7-Benzyl-5,6-dimethyl-7H-pyrrolo[2,3-d]pyrimidin-4-ylamino)-ethyl]-phenyl}-1,1-diethyl-urea], the melting point was in the range of 138.5 to 139 °C. As for `Cc1c(C)n(Cc2ccccc2)c2ncnc(NCCc3ccc(NS(=O)(=O)c4ccc(F)cc4F)cc3)c12` [Example 54, N-{4-[2-(7-Benzyl-5,6-dimethyl-7H-pyrrolo[2,3-d]pyrimidin-4-ylamino)-ethyl]-phenyl}-2,4-difluoro-benzenesulfonamide], the figure is 183 to 185 °C. As for `Cc1c(C)n(Cc2cccc(Cl)c2)c2ncnc(NCCc3ccc(NS(C)(=O)=O)cc3)c12` [Example 55, N-(4-{2-[7-(3-Chloro-benzyl)-5,6-dimethyl-7H-pyrrolo[2,3-d]pyrimidin-4-ylamino]-ethyl}-phenyl)-methanesulfonamide], the figure is 125 to 129 °C. As to `Cc1c(C)n(Cc2ccccc2)c2ncnc(NCCc3ccc(NC(=O)Nc4cccc(C(F)(F)F)c4)cc3)c12` [Example 57, 1-{4-[2-(7-Benzyl-5,6-dimethyl-7H-pyrrolo[2,3-d]pyrimidin-4-ylamino)-ethyl]-phenyl}-3-(3-trifluoromethyl-phenyl)-urea], the melting point fell in the range of 161.9 to 162.9 °C. `Cc1c(C)n(Cc2ccco2)c2ncnc(NCCc3ccc(O)cc3)c12` [Example 59, 4-[2-(7-Furan-2-ylmethyl-5,6-dimethyl-7H-pyrrolo[2,3-d]pyrimidin-4-ylamino)-ethyl]-phenol] showed a melting point of 165 to 167 °C. In turn, `Oc1ccc(CCNc2ncnc3c2ccn3Cc2ccccc2)cc1` [Example 60, 4-[2-(7-Benzyl-7H-pyrrolo[2,3-d]pyrimidin-4-ylamino)-ethyl]-phenol] yielded a melting point of 199.2 to 200.6 °C. The molecule `Cc1c(C)n(Cc2cccc(Cl)c2)c2ncnc(NCCc3ccc(O)cc3)c12` [Example 61, 4-{2-[7-(3-Chloro-benzyl)-5,6-dimethyl-7H-pyrrolo[2,3-d]pyrimidin-4-ylamino]-ethyl}-phenol] had a melting point of 167.7 to 170 °C.
